Measured values taken from patent publication US9260504B2, “N- and C-terminal substituted antagonistic analogs of GH-RH” (University of Miami, priority 2008, dated 2016).

Assays:
Format in all cases: in vivo
[1] = system: H-460 human non-small cell lung cancer; experiment: H-460 human non-SCLC xenografts in nude mice, Experiment 2; settings: 5 μg/day s.c.; for Tumor growth after 4 weeks (%): 28 days, means±S.E.; for Inhibition (%): after 4 weeks
Protocol: Male nude mice were implanted s.c. with 3 mm^3 pieces of H-460 human non-SCLC tumor tissue on both flanks. When tumors had grown to a mean volume of approximately 90 mm^3, the mice were randomly assigned into 12 experimental groups with 8 to 10 animals in each group and received single daily injections for 28 days as follows: 1. Control (vehicle solution); 2. JMR-132 (10 μg/day s.c.); 3. Peptide 11109 (5 μg/day s.c.); 4. Peptide 11113 (5 μg/day s.c.); 5. Peptide 11119 (5 μg/day s.c.); 6. Peptide 11209 (5 μg/day s.c.); 7. Peptide 11313 (5 μg/day s.c.); 8. Peptide 11408 (5 μg/day s.c.); 9. Peptide 11435 (5 μg/day s.c.); 10. Peptide 11459 (5 μg/day s.c.); 11. Peptide 11469 (5 μg/day s.c.); 12. Peptide 11491 (5 μg/day s.c.). Tumor volumes were measured once a week. The experiment was ended on day 28 by sacrificing the mice under Isoflurane anesthesia. Resulting tumors were cleaned, weighed, and snap-frozen until further analyses. Statistical analyses of the measurement results were done by two-tailed t-test, p<0.05 being considered significant. Data are presented as the means±S.E.

[2] = system: PC-3 human hormone-independent prostate cancer; experiment: PC-3 human prostate cancer xenografts in nude mice, Experiment 3; settings: 2 μg/day s.c., 28 days
Protocol: (§1) Male nude mice were implanted s.c. with 3 mm^3 pieces of PC-3 human hormone-independent prostate cancer tissue on both flanks. When tumors reached a volume of approximately 50 mm^3, the mice were divided into 12 experimental groups with 8 to 10 animals in each group and received single daily injections for 28 days as follows: 1. Control (vehicle solution); 2. JMR-132 (10 μg/day s.c.); 3. Peptide 11113 (2 μg/day s.c.); 4. Peptide 11119 (2 μg/day s.c.); 5. Peptide 11209 (2 μg/day s.c.); 6. Peptide 11313 (2 μg/day s.c.); 7. Peptide 11408 (2 μg/day s.c.); 8. Peptide 11435 (2 μg/day s.c.); 9. Peptide 11457 (2 μg/day s.c.); 10. Peptide 11459 (2 μg/day s.c.); 11. Peptide 11469 (2 μg/day s.c.); 12. Peptide 11491 (2 μg/day s.c.).
(§2) Tumor volumes were measured once a week. The experiment was ended on day 28 by sacrificing the mice under Isoflurane anesthesia. Resulting tumors were cleaned, weighed, and snap-frozen until further analyses. Statistical analyses of the measurement results were done by two-tailed t-test, p<0.05 being considered significant.

[3] = system: H-460 human non-small cell lung cancer; experiment: H-460 human non-SCLC xenografts in nude mice, Experiment 3; settings: 28 days; for Tumor growth inhibition after 4 weeks (%): 5 μg/day s.c.; for Inhibition of H-460 lung tumor growth compared with reference peptide JMR-132: 5 μg/day vs JMR-132 10 μg/day
Protocol: Male nude mice were implanted s.c. with 3 mm^3 pieces of H-460 human non-SCLC tumor tissue on both flanks. When tumors had grown to a mean volume of approximately 90 mm^3, the mice were randomly assigned into 8 experimental groups with 8 to 10 animals in each group and received single daily injections for 28 days as follows: 1. Control (vehicle solution); 2. JMR-132 (10 μg/day s.c.); 3. Peptide 11123 (5 μg/day s.c.); 4. Peptide 11125 (5 μg/day s.c.); 5. Peptide 11307 (5 μg/day s.c.); 6. Peptide 11317 (5 μg/day s.c.); 7. Peptide 11473 (5 μg/day s.c.); 8. Peptide 11485 (5 μg/day s.c.). Tumor volumes were measured once a week. The experiment was ended on day 28 by sacrificing the mice under Isoflurane anesthesia. Resulting tumors were cleaned, weighed, and snap-frozen until further analyses. Statistical analyses of the measurement results were done by two-tailed t-test, p<0.05 being considered significant.

[4] = system: PC-3 human hormone-independent prostate cancer; experiment: PC-3 human prostate cancer xenografts in nude mice, Experiment 4; settings: for Tumor growth after 28 days (%) / Tumor growth after 46 days (%) / Inhibition (%): 2 μg/day s.c.; for Inhibitory effect on PC-3 tumors compared with reference peptide JMR-132: 2 μg/day vs JMR-132 10 μg/day, after 46 days of treatment
Protocol: as §1, §2
All experimental details of Experiment 4 are the same as for Experiment 3, with the following difference. When tumors reached a volume of approximately 50 mm^3, the mice were divided into 11 experimental groups with 8 to 10 animals in each group and received single daily injections for 46 days as follows: 1. Control (vehicle solution); 2. JMR-132 (10 μg/day s.c.); 3. Peptide 11123 (2 μg/day s.c.); 4. Peptide 11125 (2 μg/day s.c.); 5. Peptide 11213 (2 μg/day s.c.); 6. Peptide 11433 (2 μg/day s.c.); 7. Peptide 11473 (2 μg/day s.c.); 8. Peptide 11485 (2 μg/day s.c.); 9. Peptide 11497 (2 μg/day s.c.); 10. Peptide 11499 (2 μg/day s.c.); 11. Peptide 11521 (2 μg/day s.c.). Tumor volumes were measured once a week. The experiment was ended on day 46 by sacrificing the mice under Isoflurane anesthesia. Resulting tumors were cleaned, weighed, and snap-frozen until further analyses. Statistical analyses of the measurement results were done by two-tailed t-test, p<0.05 being considered significant.

Substance | Tumor growth after 4 weeks (%) [1] | Inhibition (%) [1] | Tumor growth inhibition after 4 weeks (%) [2] | Tumor growth inhibition after 4 weeks (%) [3] | Inhibition of H-460 lung tumor growth compared with reference peptide JMR-132 [3] | Tumor growth after 28 days (%) [4] | Tumor growth after 46 days (%) [4] | Inhibitory effect on PC-3 tumors compared with reference peptide JMR-132 [4] | Inhibition (%) ([4]; after 28 days) | Inhibition (%) ([4]; after 46 days)
[(Ac-Ada)^0-Tyr^1, D-Arg^2, Cpa^6, Ala^8, Har^9, Tyr(Me)^10, His^11, Orn^12, Abu^15, His^20, Orn^21, Nle^27, D-Arg^28, Har^29-Ada^30]hGH-RH(1-29)NH2 [Peptide 11469] | 4810 ± 1977% | 39.06% | 78.07% |  |  |  |  |  |  | 
[(Ac-Ada)^0-Tyr^1, D-Arg^2, Cpa^6, Ala^8, Har^9, Tyr(Me)^10, His^11, Orn^12, Abu^15, His^20, Orn^21, Nle^27, D-Arg^28, Har^29]hGH-RH(1-29)NH2 [Peptide 11435] | 4170 ± 2064% | 47.17% | 75.11% |  |  |  |  |  |  | 
[(Ac-Ada-D-Phe)^0-Tyr^1, D-Arg^2, Cpa^6, Ala^8, Har^9, Tyr(Me)^10, His^11, Abu^15, His^20, Nle^27, D-Arg^28, Har^29]hGH-RH(1-29)NH2 [Peptide 11119] | 5254 ± 1524% | 33.44% | 32.03% |  |  |  |  |  |  | 
[(Ac-Amc)-Tyr^1, D-Arg^2, Cpa^6, Ala^8, Har^9, Tyr(Me)^10, His^11, Orn^12, Abu^15, His^20, Nle^27, D-Arg^28, Har^29-Amc^30]hGH-RH(1-29)NH2 [Peptide 11307] |  |  |  | 30.98% | more potently inhibited the growth of H-460 lung tumors than the reference peptide JMR-132 |  |  |  |  | 
[(Ac-Amc)^0-Tyr^1, D-Arg^2, Cpa^6, (Me-Ala)^8, Har^9, Tyr(Me)^10, His^11, Abu^15, His^20, Nle^27, D-Arg^28, Har^29]hGH-RH(1-29)NH2 [Peptide 11408] | 3998 ± 1113% | 49.35% | 63.61% |  |  |  |  |  |  | 
[(CH3—(CH2)10CO-Ada)^0-Tyr^1, D-Arg^2, Cpa^6, Ala^8, Har^9, Tyr(Me)^10, His^11, Orn^12, Abu^15, His^20, Orn^21, Nle^27, D-Arg^28, Har^29-Ada^30]hGH-RH(1-29)NH2 [Peptide 11485] |  |  |  | 9.04% |  | 794% | 1257% | had a more potent inhibitory effect than reference peptide JMR-132 | 41.96% | 62.24%
[(CH3—(CH2)10—CO-Ada)^0-Tyr^1, D-Arg^2, Cpa^6, Ala^8, Har^9, Tyr(Me)^10, His^11, Abu^15, His^20, Nle^27, D-Arg^28, Har^29]hGH-RH(1-29)NH2 [Peptide 11125] |  |  |  | 33.03% | more potently inhibited the growth of H-460 lung tumors than the reference peptide JMR-132 | 424% | 1009% | had a more potent inhibitory effect than reference peptide JMR-132 | 68.97% | 69.69%
[(Dca-Ada)^0-Tyr^1, D-Arg^2, (Phe(F)5)^6, Ala^8, Har^9, Tyr(Me)^10, His^11, Orn^12, Abu^15, His^20, Orn^21, Nle^27, D-Arg^28, Har^29]hGH-RH(1-29)NH2 [Peptide 11491] | 1926 ± 473% | 75.60% | 72.43% |  |  |  |  |  |  | 
[(Dca-Ada)^0-Tyr^1, D-Arg^2, Cpa^6, Ala^8, Har^9, Tyr(Me)^10, His^11, Abu^15, His^20, Nle^27, D-Arg^28, Har^29]hGH-RH(1-29)NH2 [Peptide 11123] |  |  |  | 35.74% | more potently inhibited the growth of H-460 lung tumors than the reference peptide JMR-132 | 786% | 1849% |  | 42.57% | 44.48%
[(PhAc^0-Ada)-Tyr^1, D-Arg^2, Cpa^6, Ala^8, Har^9, Tyr(Me)^10, His^11, Orn^12, Abu^15, His^20, Orn^21, Nle^8, D-Arg^28, Har^29-Ada^30]hGH-RH(1-29)NH2 [Peptide 11473] |  |  |  | 54.64% | more potently inhibited the growth of H-460 lung tumors than the reference peptide JMR-132 | 442% | 1072% | had a more potent inhibitory effect than reference peptide JMR-132 | 67.68% | 67.80%
[(PhAc^0-Ada)-Tyr^1, D-Arg^2, Cpa^6, Ala^8, Har^9, Tyr(Me)^10, His^11, Orn^12, Abu^15, His^20, Orn^21, Nle^27, D-Arg^28, Har^29]hGH-RH(1-29)NH2 [Peptide 11459] | 2418 ± 923% | 69.36% | 53.60% |  |  |  |  |  |  | 
[Fer^0-Tyr^1, D-Arg^2, Cpa^6, Ala^8, Har^9, Tyr(Me)^10, His^11, Abu^15, His^20, Nle^27, D-Arg^28, Har^29]hGH-RH(1-29)NH2 [Peptide 11113] | 6790 ± 3340% | 13.98% | 29.37% |  |  |  |  |  |  | 
[PhAc^0-Tyr^1, D-Arg^2, Cpa^6, Ala^8, Har^9, Tyr(Me)^10, His^11, Abu^15, His^20, Nle^27, D-Arg^28, Har^29-Apa^30]hGH-RH(1-29)NH2 [Peptide 11209] | 6377 ± 2477% | 19.21% | 48.04% |  |  |  |  |  |  | 
